Reference: ChEMBL document CHEMBL1201862, “PubChem BioAssay data set” (2004)
Activity calls are given as the source filed them.

Tests used:
HEK293 [1] = assay: cells; assay type: functional, cell-based; conditions: Homo sapiens
HEK293 [2] = assay: cells; conditions: Homo sapiens
HEK293 [3] = assay: cells; assay type: functional, cell-based; conditions: Homo sapiens; remark: listed apart in the source
[4] = target: Nucleotide-binding oligomerization domain-containing protein 1 (Homo sapiens, UniProt Q9Y239); assay: blockers of NOD1 pathway activity – revised, SAR follow-up (AID 2333); assay type: functional
Sequence of Nucleotide-binding oligomerization domain-containing protein 1 (Q9Y239 whole entry, the tested form may be a part): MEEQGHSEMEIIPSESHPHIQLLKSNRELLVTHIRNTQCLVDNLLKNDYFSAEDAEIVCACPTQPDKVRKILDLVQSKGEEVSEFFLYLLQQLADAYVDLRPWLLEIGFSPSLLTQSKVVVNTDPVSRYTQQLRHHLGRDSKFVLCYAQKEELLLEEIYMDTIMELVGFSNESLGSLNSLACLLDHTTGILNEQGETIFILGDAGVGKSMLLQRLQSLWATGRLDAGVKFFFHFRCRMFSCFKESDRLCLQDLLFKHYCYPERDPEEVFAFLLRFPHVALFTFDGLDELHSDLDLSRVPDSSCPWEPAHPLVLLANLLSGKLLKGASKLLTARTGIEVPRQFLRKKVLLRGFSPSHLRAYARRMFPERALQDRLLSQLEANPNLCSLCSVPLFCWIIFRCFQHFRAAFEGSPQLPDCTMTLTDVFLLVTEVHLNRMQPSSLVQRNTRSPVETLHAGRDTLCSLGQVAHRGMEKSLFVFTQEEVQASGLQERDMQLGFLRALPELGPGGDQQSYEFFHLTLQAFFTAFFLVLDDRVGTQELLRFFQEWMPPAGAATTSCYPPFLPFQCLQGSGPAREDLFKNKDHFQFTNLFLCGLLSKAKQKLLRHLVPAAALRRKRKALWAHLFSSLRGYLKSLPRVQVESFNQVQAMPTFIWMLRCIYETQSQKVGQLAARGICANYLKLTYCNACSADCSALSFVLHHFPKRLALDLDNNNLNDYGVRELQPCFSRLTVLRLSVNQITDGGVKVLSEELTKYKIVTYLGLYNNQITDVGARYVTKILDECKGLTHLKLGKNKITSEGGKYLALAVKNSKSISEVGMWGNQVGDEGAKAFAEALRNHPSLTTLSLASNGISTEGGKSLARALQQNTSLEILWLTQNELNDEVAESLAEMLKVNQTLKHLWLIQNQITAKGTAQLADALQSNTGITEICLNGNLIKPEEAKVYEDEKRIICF

HEK293 [5] = assay: inhibition of NOD1-driven NF-kB reporter – cell-based, luminescence, uHTS, primary screen (AID 1578); assay type: functional; conditions: Homo sapiens
HEK293 [6] = assay: NOD2 signaling inhibitors in MDP-stimulated cells, cell-based, uHTS, luminescence (AID 2001); assay type: functional; conditions: Homo sapiens
Tumor necrosis factor = Tumor necrosis factor (Homo sapiens, UniProt P01375); assay: analog potency on TNFa NF-kB signaling – cell-based, revised, SAR follow-up (AID 2337); assay type: functional
[7] = target: Sphingosine 1-phosphate receptor 2 (Homo sapiens, UniProt O95136); assay: Late stage counterscreen assay for S1P4 antagonists: Fluorescence dose response cell-based screening assay for antagonists of the Sphingosine 1-Phosphate Receptor 2 (S1P2). [Related pubchem assays (depositor defined):AID1510, AID1524, AID1692, AID1853, AID2332, AID489009, AID489017]; assay type: functional
Sequence of Sphingosine 1-phosphate receptor 2 (O95136 whole entry): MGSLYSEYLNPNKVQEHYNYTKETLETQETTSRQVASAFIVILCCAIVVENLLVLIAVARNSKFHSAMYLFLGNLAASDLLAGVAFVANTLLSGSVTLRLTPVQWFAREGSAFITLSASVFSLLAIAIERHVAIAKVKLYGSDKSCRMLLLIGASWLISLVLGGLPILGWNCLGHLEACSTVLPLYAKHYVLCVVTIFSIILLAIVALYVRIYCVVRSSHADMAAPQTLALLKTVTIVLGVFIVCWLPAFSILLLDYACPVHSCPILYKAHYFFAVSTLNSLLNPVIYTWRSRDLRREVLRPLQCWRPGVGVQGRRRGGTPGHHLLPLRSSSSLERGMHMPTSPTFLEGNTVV

[8] = target: Sphingosine 1-phosphate receptor 3 (Homo sapiens, UniProt Q99500); assay: Late stage counterscreen assay for S1P4 antagonists: Fluorescence dose response cell-based screening assay for antagonists of the Sphingosine 1-Phosphate Receptor 3 (S1P3). [Related pubchem assays (depositor defined):AID1510, AID1524, AID1692, AID1853, AID2332, AID489009, AID489017]; assay type: functional
[9] = target: Sphingosine 1-phosphate receptor 1 (Homo sapiens, UniProt P21453); assay: Late stage counterscreen assay for S1P4 antagonists: Fluorescence dose response cell-based screening assay for antagonists of the Sphingosine 1-Phosphate Receptor 1 (S1P1). [Related pubchem assays (depositor defined):AID1510, AID1524, AID1692, AID1853, AID2332, AID489009, AID489017]; assay type: functional
Sequence of Sphingosine 1-phosphate receptor 1 (P21453 whole entry): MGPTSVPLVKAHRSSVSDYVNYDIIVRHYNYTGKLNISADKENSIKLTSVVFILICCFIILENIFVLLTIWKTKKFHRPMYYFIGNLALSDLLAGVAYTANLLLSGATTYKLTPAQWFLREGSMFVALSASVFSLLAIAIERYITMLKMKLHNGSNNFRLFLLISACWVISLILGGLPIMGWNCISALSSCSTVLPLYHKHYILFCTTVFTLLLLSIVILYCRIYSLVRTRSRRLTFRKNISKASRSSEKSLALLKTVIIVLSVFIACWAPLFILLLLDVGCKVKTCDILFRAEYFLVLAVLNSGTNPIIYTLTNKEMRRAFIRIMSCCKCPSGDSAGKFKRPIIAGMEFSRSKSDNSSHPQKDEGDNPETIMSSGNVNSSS

[10] = target: Voltage-dependent T-type calcium channel subunit alpha-1H (Homo sapiens, UniProt O95180); assay type: functional;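 also: channel activity triggered by adding a high calcium stimulation buffer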
[11] = target: Sphingosine 1-phosphate receptor 5 (Homo sapiens, UniProt Q9H228); assay: Late stage counterscreen assay for S1P4 antagonists: Fluorescence dose response cell-based screening assay for antagonists of the Sphingosine 1-Phosphate Receptor 5 (S1P5). [Related pubchem assays (depositor defined):AID1510, AID1524, AID1692, AID1853, AID2332, AID489009, AID489017]; assay type: functional
[12] = target: T1, Short transient receptor potential channel 4 (Mus musculus, UniProt Q9QUQ5); assay: calcium entry via TRPC4 opening agents – cell-based, HEK293 TRPC4/mu-opioid, Fluo-4 calcium, dose response (AID 434937); assay type: functional
T1 sequence (Q9QUQ5 whole entry): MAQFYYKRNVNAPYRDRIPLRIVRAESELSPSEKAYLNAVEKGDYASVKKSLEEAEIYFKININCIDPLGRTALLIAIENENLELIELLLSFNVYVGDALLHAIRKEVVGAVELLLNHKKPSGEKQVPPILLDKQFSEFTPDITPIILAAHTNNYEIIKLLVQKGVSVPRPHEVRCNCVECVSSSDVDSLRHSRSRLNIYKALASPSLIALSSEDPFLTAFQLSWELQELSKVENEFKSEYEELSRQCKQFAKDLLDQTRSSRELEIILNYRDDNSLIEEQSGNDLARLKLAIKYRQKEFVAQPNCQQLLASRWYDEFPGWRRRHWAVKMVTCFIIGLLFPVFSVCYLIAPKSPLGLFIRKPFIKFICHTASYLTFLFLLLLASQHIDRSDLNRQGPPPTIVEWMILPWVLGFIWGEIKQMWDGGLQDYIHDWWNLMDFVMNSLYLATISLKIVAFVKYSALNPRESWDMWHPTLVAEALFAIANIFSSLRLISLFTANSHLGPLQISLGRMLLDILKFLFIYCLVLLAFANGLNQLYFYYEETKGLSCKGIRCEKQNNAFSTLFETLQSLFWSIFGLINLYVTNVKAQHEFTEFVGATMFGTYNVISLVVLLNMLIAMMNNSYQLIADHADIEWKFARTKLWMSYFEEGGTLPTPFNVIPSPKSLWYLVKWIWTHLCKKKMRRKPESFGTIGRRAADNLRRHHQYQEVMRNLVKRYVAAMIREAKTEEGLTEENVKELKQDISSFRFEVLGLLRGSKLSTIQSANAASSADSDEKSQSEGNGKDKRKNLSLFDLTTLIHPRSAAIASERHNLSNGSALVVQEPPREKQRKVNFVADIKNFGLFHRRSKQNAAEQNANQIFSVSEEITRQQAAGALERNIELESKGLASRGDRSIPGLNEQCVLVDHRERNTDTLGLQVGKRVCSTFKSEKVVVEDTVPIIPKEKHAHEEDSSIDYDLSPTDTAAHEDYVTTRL

[13] = target: T2, Kappa-type opioid receptor (Homo sapiens, UniProt P41145); assay: kappa opioid receptor blockers, image-based, SAR follow-up (AID 2348); assay type: functional
T2 sequence (P41145 whole entry): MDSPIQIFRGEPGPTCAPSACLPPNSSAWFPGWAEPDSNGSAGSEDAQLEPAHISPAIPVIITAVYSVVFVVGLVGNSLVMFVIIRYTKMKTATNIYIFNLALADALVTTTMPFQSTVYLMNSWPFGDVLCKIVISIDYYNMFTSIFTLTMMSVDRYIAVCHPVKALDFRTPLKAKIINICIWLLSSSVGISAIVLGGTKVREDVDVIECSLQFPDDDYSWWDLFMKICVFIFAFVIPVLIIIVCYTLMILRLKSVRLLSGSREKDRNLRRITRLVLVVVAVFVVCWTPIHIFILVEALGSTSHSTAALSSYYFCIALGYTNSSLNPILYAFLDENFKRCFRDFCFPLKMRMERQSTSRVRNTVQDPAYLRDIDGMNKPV

Mu-type opioid receptor [14] = target: T3, Mu-type opioid receptor (Homo sapiens, UniProt P35372); assay: mu opioid receptor activators, image-based, SAR follow-up (AID 2352); assay type: functional
T3 sequence (P35372 whole entry): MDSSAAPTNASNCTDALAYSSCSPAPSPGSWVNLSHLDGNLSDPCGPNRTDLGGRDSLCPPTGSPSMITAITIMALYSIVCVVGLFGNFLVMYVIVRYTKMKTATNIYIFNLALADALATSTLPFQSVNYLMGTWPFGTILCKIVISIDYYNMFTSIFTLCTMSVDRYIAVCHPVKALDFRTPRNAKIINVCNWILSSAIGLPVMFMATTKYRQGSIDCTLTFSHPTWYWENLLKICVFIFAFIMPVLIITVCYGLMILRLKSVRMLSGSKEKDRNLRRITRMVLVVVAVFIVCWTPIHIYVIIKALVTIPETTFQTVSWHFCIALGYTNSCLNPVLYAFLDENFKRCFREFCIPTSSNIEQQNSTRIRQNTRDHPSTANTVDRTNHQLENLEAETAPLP

[15] = target: T2, Kappa-type opioid receptor; assay: kappa opioid receptor blockers, cell-based, luminescence, beta-arrestin, SAR follow-up (AID 2285); assay type: functional
Mu-type opioid receptor [16] = target: T3, Mu-type opioid receptor; assay: mu opioid receptor blockers – image-based, SAR follow-up (AID 2420); assay type: functional;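 also: compounds added before stimulation of receptor with agonist DAMGO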
[17] = target: T4, Delta-type opioid receptor (Homo sapiens, UniProt P41143); assay: DOR agonists, SAR follow-up, image-based (AID 2370); assay type: functional
T4 sequence (P41143 whole entry): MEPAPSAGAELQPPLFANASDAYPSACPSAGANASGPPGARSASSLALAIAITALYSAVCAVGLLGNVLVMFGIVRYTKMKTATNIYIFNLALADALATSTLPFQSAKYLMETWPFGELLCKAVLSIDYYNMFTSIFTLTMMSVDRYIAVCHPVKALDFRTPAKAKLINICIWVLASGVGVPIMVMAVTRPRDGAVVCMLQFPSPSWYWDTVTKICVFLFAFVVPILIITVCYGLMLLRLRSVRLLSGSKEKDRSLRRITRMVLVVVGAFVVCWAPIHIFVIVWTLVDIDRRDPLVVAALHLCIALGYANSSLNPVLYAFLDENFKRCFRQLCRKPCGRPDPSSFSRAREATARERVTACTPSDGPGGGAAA

[18] = target: T2, Kappa-type opioid receptor; assay: kappa opioid receptor activation potency – imaging, image-based, SAR follow-up (AID 2359); assay type: functional
[19] = target: T4, Delta-type opioid receptor; assay: delta opioid receptor blockers – image-based, SAR follow-up (AID 2357); assay type: functional
Mucolipin-3 = target: T5, Mucolipin-3 (Homo sapiens, UniProt Q8TDD5); assay: Fluorescence counterscreen assay for […] agonists: dose response cell-based high-throughput screening assay to identify agonists of the transient receptor potential channel ML3 (TRPML3). [Related pubchem assays: 1424, 1448 ]; assay type: functional
T5 sequence (Q8TDD5 whole entry): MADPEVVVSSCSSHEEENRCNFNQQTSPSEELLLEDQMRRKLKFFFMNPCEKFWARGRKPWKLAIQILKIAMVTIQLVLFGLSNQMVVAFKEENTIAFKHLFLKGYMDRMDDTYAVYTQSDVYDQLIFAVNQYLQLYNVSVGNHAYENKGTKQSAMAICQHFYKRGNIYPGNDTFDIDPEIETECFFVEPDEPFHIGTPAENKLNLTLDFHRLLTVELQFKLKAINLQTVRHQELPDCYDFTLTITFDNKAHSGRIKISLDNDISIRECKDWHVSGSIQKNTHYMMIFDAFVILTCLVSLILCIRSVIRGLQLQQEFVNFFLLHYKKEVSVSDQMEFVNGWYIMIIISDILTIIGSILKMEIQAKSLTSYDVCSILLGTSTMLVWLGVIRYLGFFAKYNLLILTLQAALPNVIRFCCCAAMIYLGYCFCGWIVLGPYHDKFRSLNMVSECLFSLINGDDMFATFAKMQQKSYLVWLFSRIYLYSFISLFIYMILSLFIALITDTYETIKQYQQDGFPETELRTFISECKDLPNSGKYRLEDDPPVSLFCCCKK

Ion channel NompC = Ion channel NompC (Danio rerio, UniProt Q7T1G6); assay: Dose response cell-based high-throughput screening assay for agonists of the transient receptor potential channel N1 (TRPN1). [Related pubchem assays (depositor defined):AID1424, AID1448]; assay type: functional
[20] = target: T6, Ubiquitin-conjugating enzyme E2 N (Homo sapiens, UniProt P61088); assay type: functional
T6 sequence (P61088 whole entry): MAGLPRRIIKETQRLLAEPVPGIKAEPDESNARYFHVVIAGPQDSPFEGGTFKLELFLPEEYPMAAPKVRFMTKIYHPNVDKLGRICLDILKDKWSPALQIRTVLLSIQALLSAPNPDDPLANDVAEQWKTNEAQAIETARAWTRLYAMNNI

[21] = target: T6, Ubiquitin-conjugating enzyme E2 N; assay type: functional; remark: listed apart in the source
Bcl-2-related protein A1 = target: T7, Bcl-2-related protein A1 (Mus musculus, UniProt Q07440); assay type: functional;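 also: confirmatory dose–response counterscreen on Bfl-1, used to check hits from a UBC13 polyubiquitin inhibitor campaign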
T7 sequence (Q07440 whole entry): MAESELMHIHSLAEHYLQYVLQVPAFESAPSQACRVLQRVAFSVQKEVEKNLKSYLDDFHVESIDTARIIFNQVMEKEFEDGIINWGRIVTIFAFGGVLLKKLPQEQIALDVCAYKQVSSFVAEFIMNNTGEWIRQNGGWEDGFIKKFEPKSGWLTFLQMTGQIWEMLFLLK

[22] = target: T8, E3 ubiquitin-protein ligase XIAP (Homo sapiens, UniProt P98170); assay: small molecules displacing peptide from XIAP – biochemical, IAP family, fluorescence polarization (AID 1018); assay type: functional
T8 sequence (P98170 whole entry): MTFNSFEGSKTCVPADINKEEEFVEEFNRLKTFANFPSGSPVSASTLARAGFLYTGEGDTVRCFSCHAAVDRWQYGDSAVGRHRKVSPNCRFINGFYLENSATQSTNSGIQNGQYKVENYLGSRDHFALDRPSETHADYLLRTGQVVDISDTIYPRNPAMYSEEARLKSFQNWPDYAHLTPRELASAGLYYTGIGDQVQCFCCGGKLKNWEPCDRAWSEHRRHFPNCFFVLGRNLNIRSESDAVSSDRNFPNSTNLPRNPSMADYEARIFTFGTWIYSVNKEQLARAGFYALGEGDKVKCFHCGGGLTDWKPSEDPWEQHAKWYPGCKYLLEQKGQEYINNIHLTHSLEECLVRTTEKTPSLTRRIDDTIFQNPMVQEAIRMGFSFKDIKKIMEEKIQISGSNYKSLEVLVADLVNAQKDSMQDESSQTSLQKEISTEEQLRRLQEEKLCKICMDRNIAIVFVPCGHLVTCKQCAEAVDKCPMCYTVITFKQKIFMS

[23] = target: T8, E3 ubiquitin-protein ligase XIAP; assay: Counter Screen using XIAP-Bir3 for Chemical Antagonists of Bir1/2 domains of IAP-family anti-apoptotic proteins. [Related pubchem assays (depositor defined):AID1018, AID1449, AID1514, AID1638, AID1749, AID1750, AID488957, AID488963]
[24] = target: T9, Intestinal-type alkaline phosphatase (Homo sapiens, UniProt P09923); assay: Dose Response confirmation of uHTS hits from a small molecule inhibitors of human intestinal alkaline phosphatase via a luminescent assay. [Related pubchem assays (depositor defined):AID2544, AID2574]; assay type: functional
T9 sequence (P09923 whole entry): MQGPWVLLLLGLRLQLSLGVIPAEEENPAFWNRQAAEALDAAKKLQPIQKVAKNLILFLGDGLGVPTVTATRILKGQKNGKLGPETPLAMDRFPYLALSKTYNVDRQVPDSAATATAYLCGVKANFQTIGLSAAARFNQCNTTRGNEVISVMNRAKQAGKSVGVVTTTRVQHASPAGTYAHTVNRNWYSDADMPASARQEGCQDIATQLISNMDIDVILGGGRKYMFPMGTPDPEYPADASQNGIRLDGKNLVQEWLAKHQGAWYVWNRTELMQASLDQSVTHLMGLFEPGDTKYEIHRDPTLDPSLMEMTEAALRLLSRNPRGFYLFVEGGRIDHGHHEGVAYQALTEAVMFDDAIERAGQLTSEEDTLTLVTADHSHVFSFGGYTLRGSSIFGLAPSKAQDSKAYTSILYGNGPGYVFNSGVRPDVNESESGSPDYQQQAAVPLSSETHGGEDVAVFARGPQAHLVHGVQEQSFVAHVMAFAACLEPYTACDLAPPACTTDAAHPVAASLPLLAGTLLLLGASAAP

[25] = target: T9, Intestinal-type alkaline phosphatase; assay: human intestinal alkaline phosphatase activators, dose response, biochemical, luminescence, uHTS hits (AID 463120); assay type: functional
Cannabinoid receptor 1 = Cannabinoid receptor 1 (Homo sapiens, UniProt P21554); assay: SAR analysis of antagonists of the Cannabinoid Receptor 1 using an Image-Based Assay. [Related pubchem assays (depositor defined):AID1961, AID1965]; assay type: functional
Cannabinoid receptor 2 [26] = target: T10, Cannabinoid receptor 2 (Homo sapiens, UniProt P34972); assay: SAR analysis of antagonists of the Cannabinoid Receptor 2 using an Image-Based Assay - Set 2. [Related pubchem assays (depositor defined):AID1961, AID1965]; assay type: functional
T10 sequence (P34972 whole entry): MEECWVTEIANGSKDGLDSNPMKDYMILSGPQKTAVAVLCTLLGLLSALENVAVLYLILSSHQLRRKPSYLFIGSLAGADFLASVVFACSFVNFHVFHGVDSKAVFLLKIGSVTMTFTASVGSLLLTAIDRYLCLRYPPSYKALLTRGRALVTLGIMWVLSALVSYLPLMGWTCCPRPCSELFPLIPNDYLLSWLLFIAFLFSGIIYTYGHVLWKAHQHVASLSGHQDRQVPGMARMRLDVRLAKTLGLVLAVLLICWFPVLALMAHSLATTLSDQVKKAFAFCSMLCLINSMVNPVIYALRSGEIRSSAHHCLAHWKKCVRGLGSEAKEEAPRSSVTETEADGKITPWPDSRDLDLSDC

Cannabinoid receptor 2 [27] = target: T10, Cannabinoid receptor 2; assay: SAR analysis of agonists of the Cannabinoid Receptor 2 using an Image-Based Assay - Set 2. [Related pubchem assays (depositor defined):AID1961, AID1965]; assay type: functional
[28] = target: G-protein coupled receptor 55 (Homo sapiens, UniProt Q9Y2T6); assay: SAR analysis of selective Agonists of GPR55 using an Image-Based Assay. [Related pubchem assays (depositor defined):AID1961, AID1965]; assay type: functional
[29] = target: T2, Kappa-type opioid receptor; assay: SAR analysis of small molecule agonists of the kappa opioid receptor via a luminescent beta-arrestin assay - Set 3. [Related pubchem assays (depositor defined):AID1777, AID1785, AID1786, AID1966, AID2133, AID2136, AID2284, AID2500]; assay type: functional
[30] = target: Signal transducer and activator of transcription 1-alpha/beta (Homo sapiens, UniProt P42224); assay: STAT3 blockade with qPCR and toxicity readouts – cell-based, STAT1 panel, cytotoxicity, late-stage follow-up, panel member STAT1 Inhibition (AID 2078)
Sequence of Signal transducer and activator of transcription 1-alpha/beta (P42224 whole entry): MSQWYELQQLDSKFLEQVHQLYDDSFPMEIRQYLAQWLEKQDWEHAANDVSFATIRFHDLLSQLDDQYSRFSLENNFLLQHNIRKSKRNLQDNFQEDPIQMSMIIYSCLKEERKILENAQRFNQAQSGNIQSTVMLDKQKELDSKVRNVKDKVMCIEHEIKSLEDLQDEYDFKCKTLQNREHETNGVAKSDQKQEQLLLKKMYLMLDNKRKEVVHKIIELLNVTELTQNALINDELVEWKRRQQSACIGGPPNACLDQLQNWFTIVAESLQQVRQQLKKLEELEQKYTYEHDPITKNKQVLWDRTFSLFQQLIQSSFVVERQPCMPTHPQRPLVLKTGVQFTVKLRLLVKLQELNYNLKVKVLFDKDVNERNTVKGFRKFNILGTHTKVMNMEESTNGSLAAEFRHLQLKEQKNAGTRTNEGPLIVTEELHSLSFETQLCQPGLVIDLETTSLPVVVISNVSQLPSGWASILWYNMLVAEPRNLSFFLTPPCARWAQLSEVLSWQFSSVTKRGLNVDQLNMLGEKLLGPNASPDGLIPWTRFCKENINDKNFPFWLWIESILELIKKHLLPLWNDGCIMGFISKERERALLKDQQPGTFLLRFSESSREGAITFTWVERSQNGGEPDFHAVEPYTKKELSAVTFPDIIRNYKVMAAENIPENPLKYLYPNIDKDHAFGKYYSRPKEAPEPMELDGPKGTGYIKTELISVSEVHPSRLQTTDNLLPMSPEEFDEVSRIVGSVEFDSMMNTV

[31] = target: Signal transducer and activator of transcription 3 (Homo sapiens, UniProt P40763); assay: STAT3 blockade with qPCR and toxicity readouts – cell-based, STAT1 panel, cytotoxicity, late-stage follow-up, panel member STAT3 Inhibition (AID 2078)

NC(=O)c1ccc(N2CCN(S(=O)(=O)c3ccccc3)CC2)c([N+](=O)[O-])c1
IC50 (HEK293 [1]): > 20 µM (inactive)
IC50 (HEK293 [2]): > 20 µM (inactive)
IC50 (HEK293 [3]): 16 µM (active)
IC50 [4]: 5.86 µM (active)
EC50 (HEK293 [5]): 4.72 µM (active)
IC50 (HEK293 [6]): > 20 µM (inactive)
IC50 (Tumor necrosis factor): > 20 µM (inactive)

Cc1cccc(C)c1NC(=O)c1ccc(-c2ccc(Cl)cc2Cl)o1
IC50 [7]: 14.2 µM (inactive)
IC50 [8]: 25.4 µM (inactive)
IC50 [9]: > 25 µM (inactive)
EC50 [10]: 5.94 µM (active)
IC50 [11]: 9.62 µM (active)

CC(=O)c1ccc(S(=O)(=O)NCc2ccc(C(=O)NCC(c3ccccc3)N(C)C)cc2)cc1 (configuration not stated)
EC50 [12]: 0.596 µM (active)
IC50 [13]: 4.73 µM (active)
EC50 (Mu-type opioid receptor [14]): > 32 µM (inactive)
IC50 [15]: 6.72 µM (active)
IC50 (Mu-type opioid receptor [16]): 1.92 µM (active)
EC50 [17]: 1.6 µM (active)
EC50 [18]: > 32 µM (inactive)
IC50 [19]: > 32 µM (inactive)

COc1cc(OC)c(C(=O)NC2CCCCCC2)cc1OC
EC50 (Mucolipin-3): > 29.9 µM (not active)
EC50 (Ion channel NompC): > 29.9 µM (inactive)

NCCCn1c(C(=O)c2cc(Cl)c(N)c(Cl)c2)c2ccccc2[n+]1[O-]
EC50 [12]: 1.88 µM (active)
IC50 [20]: 12.9 µM (active)
IC50 [21]: 5.33 µM (active)
IC50 (Bcl-2-related protein A1): > 20 µM (inactive)

CCN(Cc1ccccc1)C(=O)/C=C/c1ccccc1[N+](=O)[O-]
IC50 [22]: > 100 µM (not active)
IC50 [23]: > 100 µM (inactive)

CC(=O)c1ccc(NC(=O)C2CCCN2S(=O)(=O)c2cccs2)cc1 (configuration not stated)
IC50 [24]: > 100 µM (inactive)
EC50 [25]: > 100 µM (inactive)

COc1ccc(-c2csc(NC(=O)CSc3nnc4c(C)cc5ccccc5n34)n2)cc1
IC50 (Cannabinoid receptor 1): > 32 µM (inactive)
IC50 (Cannabinoid receptor 2 [26]): > 32 µM (inactive)
EC50 (Cannabinoid receptor 2 [27]): > 32 µM (inactive)
EC50 [28]: 0.658 µM (active)

Brc1ccc(CSc2nnc(-c3ccc(Br)cc3)n2Cc2ccco2)cc1
EC50 [29]: 11.3 µM (inactive)

c1ccc(CC2CCN(c3ncnc4scc(-c5ccccc5)c34)CC2)cc1
IC50 [30]: > 55.7 µM (inactive)
IC50 [31]: > 55.7 µM (inactive)
